# Data as given in patent US20240043439A1, “COMPOUNDS AS C5AR INHIBITORS” (Kira Pharmaceuticals (Suzhou) Ltd., priority 2020, published 2024).
# Legend:
# [1] = target: human C5a receptor (C5aR) (Homo sapiens (Human), UniProt P21730); test: Inhibition of C5a-C5aR binding (biotinylated human C5a, U937/C5aR cells, FACS)
# Description: U937 cells were originally obtained from the American Type Culture Collection (ATCC) and transfected with human C5a receptor (C5aR). U937/C5aR cells were cultured at 37° C., 5% CO2 in RPMI1640 (Gibco) supplemented with 10% FBS (Gibco) and 350 µg/ml Geneticin (Gibco) and passaged every 3 days to maintain the density range from […] to 2×10^6 cells/ml.
# Human C5a biotinylation was performed according to the procedure provided by manufacturer (Thermo Scientific, A39257). 10 mM solution of Sulfo-NHS-LC-Biotin was prepared by adding 180μl ultrapure H2O to the 1 mg vial immediately. 12 μl 10 mM biotin reagent was added to […] human C5a solution, gently pipetted for 3 seconds, and incubated on ice for 2 hours. Amicon ultra-0.5 centrifuge filter device (Millipore, UFC5003BK) was pre-rinsed with Milli-Q H2O, centrifuged at 14000 g for 5 min immediately before use. Up to […] sample (diluted by PBS) was added to the device and capped. The device was spinned at 14000 g for approximately 5 min. 250 μl PBS was added to the filter device, spinned at 14000 g for 5 min, and repeatedly washed 6 times. The filter device was separated from the microcentrifuge tube and placed upside down in a clean microcentrifuge tube, spinned for 2 min at 1000 g to transfer the concentrated sample from the device to the tube.
# U937/C5aR cells were collected and washed twice by PBS, cells were suspended in PBS+0.1% BSA buffer at the density of 3×10^6 cells/ml. 100 μl cell suspension was added to a 96 well microplate. 50 μl compound diluted in assay buffer and 50 μl biotinylated ligand human C5a (30 nM) were added to corresponding wells in order and the plate was incubated on ice for 120 min and then centrifuged at 1000 rpm for 3-5 min at 4° C. Supernatant was removed and cells were washed by pre-cold PBS twice. 100 μl FITC conjugated streptavidin was added to cells, incubated on ice for another 30 min, and then centrifuged at 1000 rpm for 3-5 min at 4° C. Supernatant was removed and cells were washed by pre-cold PBS twice. 150 μl PBS was added to suspend the cells and signals were detected by FACS (Beckman, Cytoflex).
# C5aR = C5aR (Homo sapiens (Human), UniProt P21730); test: Calcium mobilization (U937/C5aR or HEK293/C5aR cells, FLIPR); type: cell-based; conditions: agonist human C5a at EC80, FLIPR
# Description: U937/C5aR cells or HEK293/C5aR cells were washed by PBS and suspended in growth media at the density of 1×10^6 cells/ml. […] to the 384-well plate and culture for overnight. Transfer 250 nl compound solution to the cell plate using Echo, incubate for 60 min. Cells were added with Fluo-4 Direct™ dye and incubate for 50 min at 37° C. 5% CO2 and 10 m at room temperature. Place the cell plate into […] (Molecular Devices). Transfer 10 μl of 5-fold EC80 concentrations of agonist human C5a to the cell plates.
# Sequence of C5aR (P21730 whole entry): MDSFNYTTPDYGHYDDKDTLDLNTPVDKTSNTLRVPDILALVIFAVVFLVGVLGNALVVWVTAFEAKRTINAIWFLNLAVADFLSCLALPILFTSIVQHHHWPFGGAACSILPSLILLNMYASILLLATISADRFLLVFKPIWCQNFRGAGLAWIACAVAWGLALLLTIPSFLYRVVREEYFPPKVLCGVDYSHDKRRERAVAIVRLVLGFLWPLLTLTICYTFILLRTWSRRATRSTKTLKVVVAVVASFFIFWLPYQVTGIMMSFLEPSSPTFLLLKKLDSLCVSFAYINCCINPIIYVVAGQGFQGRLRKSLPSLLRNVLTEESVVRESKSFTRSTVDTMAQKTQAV
# Sequence of human C5a receptor (C5aR) (P21730 whole entry): as above
SMILES,IC50 [1],IC50 (C5aR)
"Cc1cccc(F)c1C(=O)N1C2CCC[C@@H]2C[C@H](C(=O)Nc2ccc3ncn(C)c3c2)[C@@H]1c1ccc(NC2CCCC2)cc1 (mixture of isomers) [Compound 74, cis-2-(4-(cyclopentylamino)phenyl)-1-(2-fluoro-6-methylbenzoyl)-N-(1-methyl-1H-benzo[d]imidazol-6-yl)octahydro-1H-cyclopenta[b]pyridine-3-carboxamide]",2000 to 5000 nM,> 10000 nM
"Cc1cccc(F)c1C(=O)N1C2COC[C@@H]2C[C@H](C(=O)Nc2ccc(N(C)C)cc2)[C@@H]1c1ccc(NC2CCOCC2)cc1 (mixture of isomers) [Compound 136, cis-N-(4-(dimethylamino)phenyl)-1-(2-fluoro-6-methylbenzoyl)-2-(4-((tetrahydro-2H-pyran-4-yl)amino)phenyl)octahydrofuro[3,4-b]pyridine-3-carboxamide]",2000 to 5000 nM,2000 to 10000 nM
"Cc1cccc(F)c1C(=O)N1[C@@H]2CCC[C@@H]2C[C@H](C(=O)Nc2ccc(Cl)c(C(F)(F)F)c2)[C@@H]1c1ccc(NC2CCCC2)cc1 (racemic) [Compound 60, cis-N-(4-chloro-3-(trifluoromethyl)phenyl)-2-(4-(cyclopentylamino)phenyl)-1-(2-fluoro-6-methylbenzoyl)octahydro-1H-cyclopenta[b]pyridine-3-carboxamide]",2000 to 5000 nM,50 to 500 nM
"Cc1cccc(F)c1C(=O)N1[C@@H]2CCC[C@@H]2C[C@H](C(=O)Nc2ccc(Cl)c(Cl)c2)[C@@H]1c1ccc(NC2CCCC2)cc1 (racemic) [Compound 64, cis-2-(4-(cyclopentylamino)phenyl)-N-(3,4-dichlorophenyl)-1-(2-fluoro-6-methylbenzoyl)octahydro-1H-cyclopenta[b]pyridine-3-carboxamide]",500 to 2000 nM,2000 to 10000 nM
"Cc1cccc(F)c1C(=O)N1[C@@H]2CCC[C@@H]2C[C@H](C(=O)Nc2ccc(NC=O)c(O)c2)[C@@H]1c1ccc(NC2CCCC2)cc1 (racemic) [Compound 68, cis-2-(4-(cyclopentylamino)phenyl)-1-(2-fluoro-6-methylbenzoyl)-N-(4-formamido-3-hydroxyphenyl)octahydro-1H-cyclopenta[b]pyridine-3-carboxamide]",2000 to 5000 nM,500 to 2000 nM
"Cc1cccc(F)c1C(=O)N1[C@@H]2CCC[C@@H]2C[C@H](C(=O)Nc2ccc3c(cnn3CCF)c2)[C@@H]1c1ccc(NC2CCOCC2)cc1 [Compound 109, (2R,3S,4aR,7aR)-1-(2-fluoro-6-methylbenzoyl)-N-(1-(2-fluoroethyl)-1H-indazol-5-yl)-2-(4-((tetrahydro-2H-pyran-4-yl)amino)phenyl)octahydro-1H-cyclopenta[b]pyridine-3-carboxamide]",500 to 2000 nM,–
"Cc1cccc(F)c1C(=O)N1[C@@H]2COC[C@@H]2C[C@H](C(=O)Nc2ccc3cnn(C)c3c2)[C@@H]1c1ccc(NC2CCCC2)cc1 [Compound 122, (2R,3S,4aR,7aS)-2-(4-(cyclopentylamino)phenyl)-1-(2-fluoro-6-methylbenzoyl)-N-(1-methyl-1H-indazol-6-yl)octahydrofuro[3,4-b]pyridine-3-carboxamide]",2000 to 5000 nM,–
"Cc1cccc(F)c1C(=O)N1[C@@H]2COC[C@@H]2C[C@H](C(=O)Nc2ccc3c(cnn3C)c2)[C@@H]1c1ccc(CN2CCOCC2(C)C)cc1 [Compound 142, (2R,3S,4aR,7aS)-2-(4-((3,3-dimethylmorpholino)methyl)phenyl)-1-(2-fluoro-6-methylbenzoyl)-N-(1-methyl-1H-indazol-5-yl)octahydrofuro[3,4-b]pyridine-3-carboxamide]",2000 to 5000 nM,–
"Cc1ccc(NC(=O)[C@H]2CCCN(C(=O)c3c(C)cccc3F)[C@H]2C2CCC3(CCOC3)CC2)cc1C(F)(F)F (stereo partly drawn) [Compound 170, (2S,3S)-1-(2-fluoro-6-methylbenzoyl)-N-(4-methyl-3-(trifluoromethyl)phenyl)-2-(2-oxaspiro[4.5]decan-8-yl)piperidine-3-carboxamide]",500 to 2000 nM,–

# The remaining lines, values ahead:
IC50 [1],IC50 (C5aR),SMILES
< 50 nM,50 to 500 nM,"Cc1cccc(F)c1C(=O)N1C2CCC[C@@H]2C[C@H](C(=O)Nc2cccc(F)c2)[C@@H]1c1ccc(NC2CCCC2)cc1 (mixture of isomers) [Compound 56, cis-2-(4-(cyclopentylamino)phenyl)-1-(2-fluoro-6-methylbenzoyl)-N-(3-fluorophenyl)octahydro-1H-cyclopenta[b]pyridine-3-carboxamide]"
50 to 500 nM,500 to 2000 nM,"Cc1ccc(NC(=O)[C@H]2C[C@H]3COCC3N(C(=O)c3c(C)cccc3F)[C@H]2c2ccc(NC3CCOCC3)cc2)cc1C(F)(F)F (mixture of isomers) [Compound 135, cis-1-(2-fluoro-6-methylbenzoyl)-N-(4-methyl-3-(trifluoromethyl)phenyl)-2-(4-((tetrahydro-2H-pyran-4-yl)amino)phenyl)octahydrofuro[3,4-b]pyridine-3-carboxamide]"
50 to 500 nM,50 to 500 nM,"Cc1ncc(NC(=O)[C@H]2C[C@H]3CCC[C@H]3N(C(=O)c3c(C)cccc3F)[C@H]2c2ccc(NC3CCCC3)cc2)cn1 (racemic) [Compound 58, cis-2-(4-(cyclopentylamino)phenyl)-1-(2-fluoro-6-methylbenzoyl)-N-(2-methylpyrimidin-5-yl)octahydro-1H-cyclopenta[b]pyridine-3-carboxamide]"
< 50 nM,500 to 2000 nM,"Cc1ccc(NC(=O)[C@H]2C[C@H]3CCC[C@H]3N(C(=O)c3c(C)cccc3F)[C@H]2c2ccc(NC3CCCC3)cc2)cn1 (racemic) [Compound 63, cis-2-(4-(cyclopentylamino)phenyl)-1-(2-fluoro-6-methylbenzoyl)-N-(6-methylpyridin-3-yl)octahydro-1H-cyclopenta[b]pyridine-3-carboxamide]"
50 to 500 nM,2000 to 10000 nM,"Cc1cccc(F)c1C(=O)N1[C@@H]2CCC[C@@H]2C[C@H](C(=O)Nc2ccc3ncsc3c2)[C@@H]1c1ccc(NC2CCCC2)cc1 (racemic) [Compound 69, cis-N-(benzo[d]thiazol-6-yl)-2-(4-(cyclopentylamino)phenyl)-1-(2-fluoro-6-methylbenzoyl)octahydro-1H-cyclopenta[b]pyridine-3-carboxamide]"
< 50 nM,2000 to 10000 nM,"Cc1cccc(F)c1C(=O)N1[C@@H]2CCC[C@@H]2C[C@H](C(=O)Nc2ccc3c(c2)OCCO3)[C@@H]1c1ccc(NC2CCCC2)cc1 (racemic) [Compound 71, cis-2-(4-(cyclopentylamino)phenyl)-N-(2,3-dihydrobenzo[b][1,4]dioxin-6-yl)-1-(2-fluoro-6-methylbenzoyl)octahydro-1H-cyclopenta[b]pyridine-3-carboxamide]"
50 to 500 nM,500 to 2000 nM,"Cc1cccc(F)c1C(=O)N1C2CCC[C@@H]2C[C@H](C(=O)Nc2cccc(Cl)c2)[C@@H]1c1ccc(NC2CCCC2)cc1 (relative stereo) [Compound 55, cis-N-(3-chlorophenyl)-2-(4-(cyclopentylamino)phenyl)-1-(2-fluoro-6-methylbenzoyl)octahydro-1H-cyclopenta[b]pyridine-3-carboxamide]"
50 to 500 nM,–,"Cc1cccc(F)c1C(=O)N1[C@@H]2COC[C@@H]2C[C@H](C(=O)Nc2cnc3cnn(C)c3c2)[C@@H]1c1ccc(NC2CCCC2)cc1 [Compound 123, (2R,3S,4aR,7aS)-2-(4-(cyclopentylamino)phenyl)-1-(2-fluoro-6-methylbenzoyl)-N-(1-methyl-1H-pyrazolo[4,3-b]pyridin-6-yl)octahydrofuro[3,4-b]pyridine-3-carboxamide]"
